Each compound was assayed against Isocitrate dehydrogenase [NADP] cytoplasmic (Homo sapiens, UniProt O75874, R132H) (assay: Inhibition of IDH1 R132H mutant (unknown origin) assessed as reduction in NADPH consumption using alpha-KG as substrate incubated for 5 mins followed by substrate addition and measured every 1 min).
Sequence of Isocitrate dehydrogenase [NADP] cytoplasmic (O75874 2-414 R132H limits assumed): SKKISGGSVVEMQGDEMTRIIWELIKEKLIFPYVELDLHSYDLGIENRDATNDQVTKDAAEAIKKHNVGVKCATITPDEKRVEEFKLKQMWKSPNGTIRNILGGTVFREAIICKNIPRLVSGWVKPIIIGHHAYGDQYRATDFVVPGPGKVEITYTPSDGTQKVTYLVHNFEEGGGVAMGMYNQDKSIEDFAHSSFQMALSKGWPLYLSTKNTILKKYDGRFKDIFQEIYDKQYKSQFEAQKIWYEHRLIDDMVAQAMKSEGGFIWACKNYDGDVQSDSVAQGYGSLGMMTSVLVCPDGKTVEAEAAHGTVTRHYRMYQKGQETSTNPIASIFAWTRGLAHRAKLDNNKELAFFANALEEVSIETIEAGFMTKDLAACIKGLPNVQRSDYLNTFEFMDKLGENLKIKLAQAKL

SMILES | IC50
CC(C)C[C@@H]1NC(=O)[C@]23[C@H]1[C@H](C)C(CO)=C[C@@H]2[C@@H]1[C@@]2(CCC[C@@]1(C)O)CC[C@]3(O)O2 | > 50 µM
CC1=C[C@@H]2/C=C(\C)CC[C@@H](O)C(=O)[C@H]3[C@H](C(=O)[C@]24C(=O)N[C@@H](CC(C)C)[C@@H]4[C@@H]1C)[C@@H]1O[C@H]3c2c(O)c(O)c(O)c(C)c21 | > 50 µM
CC1=C[C@@H]2/C=C(\C)CC[C@@H](O)C(=O)[C@H]3[C@H](C(=O)[C@]24C(=O)N[C@@H](CC(C)C)[C@@H]4[C@@H]1C)[C@@H]1O[C@H]3c2c(C)c(O)c(O)c(O)c21 | > 50 µM
C=C1CC[C@@H](O)[C@]23CC[C@](O)(O2)[C@@]24C(=O)N[C@@H](CC(C)C)[C@@H]2[C@H](C)C(C)=C[C@@H]4[C@@H]13 | > 50 µM
CC1=C[C@@H]2/C=C(\C)CC[C@@H](O)C(=O)[C@H]3[C@H](C(=O)[C@]24C(=O)N[C@@H](CC(C)C)[C@@H]4[C@@H]1C)[C@H]1O[C@@H]3c2c(O)c(O)c(O)c(C)c21 | > 50 µM
COc1c(O)c(C)c2c(c1O)[C@@H]1O[C@H]2[C@H]2C(=O)[C@@]34C(=O)N[C@@H](CC(C)C)[C@@H]3[C@H](C)C(C)=C[C@@H]4/C=C(\C)CC[C@@H](O)C(=O)[C@@H]21 | 43.6 µM

These reach a lower IC50. Values come first.

IC50 | SMILES
0.2 µM | Cc1ccccc1C(C(=O)NC1CCCCC1)N(C(=O)Cn1ccnc1C)c1cccc(F)c1 (stereo not given)
13.3 µM | COc1c(O)c(C)c2c(c1O)[C@H]1O[C@@H]2[C@H]2C(=O)[C@@]34C(=O)N[C@@H](CC(C)C)[C@@H]3[C@H](C)C(C)=C[C@@H]4/C=C(\C)CC[C@@H](O)C(=O)[C@@H]21
17.3 µM | COc1c(O)c(C)c2c(c1O)[C@@H]1O[C@H]2[C@H]2C(=O)[C@H](O)CC/C(C)=C/[C@H]3C=C(C)[C@@H](C)[C@H]4[C@H](CC(C)C)NC(=O)[C@]43C(=O)[C@@H]21
11.7 µM | COc1c(O)c(C)c2c(c1O)[C@H]1O[C@@H]2[C@H]2C(=O)[C@H](O)CC/C(C)=C/[C@H]3C=C(C)[C@@H](C)[C@H]4[C@H](CC(C)C)NC(=O)[C@]43C(=O)[C@@H]21

Source: ChEMBL document CHEMBL4334517, “Flavipesines A and B and Asperchalasines E-H: Cytochalasans and Merocytochalasans from Aspergillus flavipes” (J Nat Prod, 2019)
